Experimental data published in US20240100164A1, “REPEATED PHOTODYNAMIC THERAPY USING PHOTOSENSITIZING AGENT” (Incando Therapeutics Pte. Ltd., priority 2022, published 2024).
Where “and” joins values, the source holds several entries; their conditions need not be identical. Equal entries are not always repeated.

Experiments:
[1] = tested on: C6 glioma; assay: Single application of PDT in orthotopic C6 glioma model (Ki67, TUNEL histology); assay type: in vivo, Sprague Dawley rat
Protocol: (§1) The implants were secured in place by suturing the overlying skin to close the surgical site. Device operation was tested briefly before closure. Six hours prior to each PDT treatment, rats were injected with 100 mg/kg 5-ALA (Synchem UG & Co. KG) prepared in sterile PBS (1X, Hyclone) via tail vein or with a vehicle control. PDT treatment was conducted under 1.5-2.5% […] isoflurane/O2 general anesthesia. Wireless powering coils such as those disclosed herein were secured to each animal's head, and each PDT treatment delivered 2.5 mW/cm2 of light over 3,600 seconds for a total fluence of 9 J/cm^2 per treatment. Any of the other treatment parameters disclosed herein may be used.
Test animals were sacrificed after 24 hours, and their brains were sectioned for histological examination. The proliferation marker Ki67 and the TUNEL assay (terminal deoxynucleotidyl transferase dUTP nick end labeling) indicative of apoptosis was used to quantify the PDT effect.
Test animals were sacrificed after 24 hours, and their brains were sectioned for histological examination. The proliferation marker Ki67 and the TUNEL assay indicative of apoptosis was used to quantify the PDT effect.

[2] = tested on: glioma cells; assay: In vitro 3D hydrogel culture, PDT induced cell death of glioma cells; assay type: cell-based; settings: glioma cells in 3D-hydrogel incubated with 5-ALA, illuminated with LED at 630 nm
Excerpt: An in vitro model of light penetration into tissue was established to determine the quantitative relationship between light penetrance PDT instigated cell death. The primary parameters for light input are illumination intensity and duration of illumination. The primary parameter for PDT instigated cell death is depth (or distance from the light source to the target treatment tissue), which directly attenuates light penetration into tissue.
To evaluate PDT for treatment of gliomas and brain cancers glioma cells were propagated in a hydrogel medium in a three-dimensional (3D) culture to mimic the cellular and optical environment of the brain. A commercial 3D culture system was used to set up the culture in a linear configuration such that a point source of light could be applied to one end of a closed culture in a cylinder form. The total cellular growth volume was 1 mm×1 mm×15 mm. A 630 nm LED light source that mimics the spectral characteristics and intensity of the any of the implantable devices disclosed herein was used to illuminate embedded glioma cells and to establish the effective PDT “kill radius.”
FIGS. 9A-9B show PDT induced cell death of glioma cells using a LED light source such as any of those disclosed herein. Glioma cells were embedded in a 3D-hydrogel, incubated with study drug 5-ALA, and illuminated with a light from a LED at 630 nm as shown in FIG. 9A. […]

[3] = tested on: C6 glioma; assay: Single vs. repeated PDT (rePDT) in orthotopic C6 glioma model, survival and tumor size; assay type: in vivo, Sprague Dawley rat
Excerpt: Animals were monitored daily for weight change and behavioral abnormalities ahead of xenograft induced mortality. Ethical termination via CO2 overdose was triggered in the following events: individual weight loss of greater than 20% in one day, extended cessation of motor behavior and loss of grooming; paralysis and lack of movement/lying on a side. After termination or death, individual rat brains were dissected and prepared for histological analysis by freezing in OCT compound (Tissue-Tek). Survival analysis was performed via the method of Kaplan-Meier.
as §1
Further experimentation was conducted to determine if repeated application of PDT treatment would have a cumulative effect on tumor growth and disease progression. […] If a single PDT treatment was at least 50% effective in destroying the tumor population, an inter-treatment interval of 2 days would maintain or diminish the tumor graft to at, or near starting levels. With this rationale in mind, PDT treatment was applied according to the schema shown in FIG. 12A with four treatments repeated every two days starting at day 4 after xenograft surgery.
On the day of treatment, animals received 5-ALA via tail vein injection and allowed to recover for 6 hours to allow uptake and expression of PPIX. PDT treatment was conducted under light general anaesthesia via halothane to reduce movement during PDT. […] This procedure was repeated at 2-day intervals for a total of four treatments.
FIG. 13 also illustrates survival curves for single vs repeat PDT treated animals. Sprague Dawley rats were implanted with c6 glioma cells and implanted with a wirelessly powered light source above the injection site as described. On treatment days (days 4, 6, 8, 10), animals were given the study drug 5-ALA as described and received PDT treatment. […] In contrast, 7 of 8 cohort 2 animals, which received PDT treatment on days 4, 6, 8, and 10, survived to day 70 at which point the experiment was stopped. Therefore, rePDT kills more of the tumor compared with a single treatment of PDT and increases survival time of the rodents.

[4] = tested on: C6 glioma; assay: Orthotopic C6 glioma xenograft, 5-ALA uptake and conversion to PPIX in tumor; assay type: in vivo, Sprague Dawley rat; settings: C6 tumor in rat striatum, histology
Protocol: C6 rat glioma cells were maintained in F12K medium (F-12K Nutrient Mixture, 1X, Gibco) supplemented with […] (Biowest), […] (Gibco), and 1% each of P/S and L/G antibiotics (Biowest) at 37° C. in a humidified incubator containing 5% CO2. Subconfluent, low passage C6 glioma cells were resuspended to single cell suspension in sterile PBS (1X, Hyclone) within two hours of xenotransplantation.
Approximately 2×10^5 cells were stereotactically injected into the striatum of rats (230-270 g, InVivos Pte Ltd) under general anaesthesia. Using a hand-held drill, a burr hole of 1 mm was drilled and cells were injected unilaterally at 3 mm lateral to Bregma and at a depth of 4 mm. Injections were conducted using borosilicate capillary glass micropipettes (A-M Systems) pulled to a tip diameter of ˜[…]. Animals were allowed to recover with daily antibiotics and analgesics for up to a week and monitored post operatively for adverse events and signs of distress in compliance with relevant animal treatment guidelines.
FIG. 10 illustrates an orthotopic xenograft model. Rat C6 glioma cells are implanted unilaterally into the striatum of Sprague Dawley rats. Tumor engraftment and growth was rapid and morphology is consistent with human high grade gliomas.

[5] = in vivo; cited from earlier work

Structure (SMILES)	PDT effect (Ki67 and TUNEL) ([1]; 100 mg/kg 5-ALA tail vein 6 h before wirelessly powered light, 9 J/cm^2, sacrificed after 24 hours)	PDT effect (Ki67 and TUNEL) ([1]; either component singly (5-ALA without light))	effective "kill zone" (distance from the light source) [2]	adverse effects after PDT treatment ([3]; 5-ALA tail vein 6 hours before PDT under general anaesthesia, four treatments at 2-day intervals)	mean survival ([3]; Cohort 1, PDT treatment only on day 4 (n=10))	time of mortality ([3]; control animals (control treatment = single PDT session))	tumor size ([3]; control animals (control treatment = single PDT session), necropsy)	median survival ([3]; control animals (n=10), Kaplan-Meier)	animals living at the end of the experiment ([3]; rePDT)	tumor cells by H&E staining ([3]; rePDT animals, histology)	Ki67 level ([3]; rePDT animals, histology, vs contralateral controls)	reduction in the tumor volume ([3]; rePDT vs control animals, gross estimates)	animals living at the end of the experiment (day 70) ([3]; rePDT, PDT on days 4, 6, 8, 10, hydrochloride)	survival (day of termination of experiment) ([3]; repeated PDT (rePDT), four treatments every two days from day 4)	PPIX signal in the tumor (conversion of 5-ALA to PPIX) [4]	tumor uptake of photosensitizer [4]	systemic clearance time of 5-ALA-induced PPIX [5]
Cl.NCC(=O)CCC(=O)O [5-ALA, 5-amino-4-oxo-pentanoic acid hydrochloride]	able to induce PDT	did not show the same effect	6-8 mm	no adverse effects	~22 days	22 to 24 days	125-200 mm^3	21 days	89%	trace amounts of tumor cells	low levels of Ki67	> 99.5%	8 out of 9 and 7 of 8	≥ 70 days	Strong PPIX signal	takes up the photosensitizer drug 5-ALA	–
C=CC1=C(C)c2cc3[nH]c(cc4nc(cc5[nH]c(cc1n2)c(C)c5CCC(=O)O)C(CCC(=O)O)=C4C)c(C)c3C=C [PPIX, Protoporphyrin IX]	–	–	–	–	–	–	–	–	–	–	–	–	–	–	–	–	≤ 24 h
